The source made the active and inactive calls. How the calls were made is not given here.

This is an account of results in PubChem BioAssay AID1259411 (Chemical Carcinogenesis Research Information System (CCRIS), 2018).

This data set deals with rodent carcinogenicity bioassays, tumor incidence. Nature of the data set: CCRIS carcinogenicity studies. The gist of the method:
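NCI-built, expert-reviewed records of carcinogenicity and related test outcomes (mutagenicity, tumor promotion/inhibition) compiled from published and report sources, historical span 1985-2011, not updated.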

For the compound `Oc1c(Cl)c(Cl)c(Cl)c(Cl)c1Cl`, the carcinogen call is “active; positive” (Species: MOUSE, Strain/Sex: B6C3F1/FEMALE, Route: ORAL, Dose: 0, 100, 200, 600 PPM DOWCIDE EC-7 IN FEED FOR 103 WK (STUDY DURATION: 103 WK), Dose: 0, 100, 200, 600 PPM DOWCIDE EC-7 IN FEED FOR 103 WK (STUDY DURATION: 103 WK), Tumor Site: Type of Lesion: ADRENAL GLAND/MEDULLA: PHEOCHROMOCYTOMA: ADRENAL GLAND/MEDULLA: PHEOCHROMOCYTOMA OR MALIGNANT PHEOCHROMOCYTOMA, CIRCULAT); “active; positive” (Species: MOUSE, Strain/Sex: B6C3F1/FEMALE, Route: ORAL, Dose: 0, 100, 200 PPM TECHNICAL GRADE PENTACHLOROPHENOL IN FEED FOR 103 WK (STUDY DURATION: 103 WK), Dose: 0, 100, 200 PPM TECHNICAL GRADE PENTACHLOROPHENOL IN FEED FOR 103 WK (STUDY DURATION: 103 WK), Tumor Site: Type of Lesion: LIVER: HEPATOCELLULAR ADENOMA OR CARCINOMA, CIRCULATORY SYSTEM: HEMANGIOSARCOMA); “active; positive” (Species: MOUSE, Strain/Sex: B6C3F1/MALE, Route: ORAL, Dose: 0, 100, 200, 600 PPM DOWCIDE EC-7 IN FEED FOR 103 WK (STUDY DURATION: 103 WK), Dose: 0, 100, 200, 600 PPM DOWCIDE EC-7 IN FEED FOR 103 WK (STUDY DURATION: 103 WK), Tumor Site: Type of Lesion: ADRENAL GLAND/MEDULLA: PHEOCHROMOCYTOMA, ADRENAL GLAND/MEDULLA: PHEOCHROMOCYTOMA OR MALIGNANT PHEOCHROMOCYTOMA, LIVER: H, Tumor Site: Type of Lesion: ADRENAL GLAND/MEDULLA: PHEOCHROMOCYTOMA, ADRENAL GLAND/MEDULLA: PHEOCHROMOCYTOMA OR MALIGNANT PHEOCHROMOCYTOMA, LIVER: H); “active; positive” (Species: MOUSE, Strain/Sex: B6C3F1/MALE, Route: ORAL, Dose: 0, 100, 200 PPM TECHNICAL GRADE PENTACHLOROPHENOL IN FEED FOR 103 WK (STUDY DURATION: 103 WK), Dose: 0, 100, 200 PPM TECHNICAL GRADE PENTACHLOROPHENOL IN FEED FOR 103 WK (STUDY DURATION: 103 WK), Tumor Site: Type of Lesion: ADRENAL GLAND/MEDULLA: PHEOCHROMOCYTOMA, LIVER: HEPATOCELLULAR ADENOMA, LIVER: HEPATOCELLULAR ADENOMA OR CARCINOMA, Tumor Site: Type of Lesion: ADRENAL GLAND/MEDULLA: PHEOCHROMOCYTOMA, LIVER: HEPATOCELLULAR ADENOMA, LIVER: HEPATOCELLULAR ADENOMA OR CARCINOMA); “inactive; negative” (Species: MOUSE, Strain/Sex: B6C3F1/MALE, Route: ORAL, Dose: 0, 1200 PPM IN DIET FOR 13 WK (STUDY DURATION: 42 WK)); “inactive; negative” (Species: RAT, Strain/Sex: F344/N/FEMALE, Route: ORAL, Dose: 0, 200, 400, 600 PPM IN DIET FOR 105 WK (STUDY DURATION: 105 WK), Dose: 0, 200, 400, 600 PPM IN DIET FOR 105 WK (STUDY DURATION: 105 WK)). The carcinogen call is “inactive; negative” (Species: RAT, Strain/Sex: F344/N/FEMALE, Route: ORAL, Dose: 0, 1000 PPM IN DIET FOR 52 WK (STUDY DURATION: 105 WK)); “inactive; negative” (Species: RAT, Strain/Sex: F344/N/MALE, Route: ORAL, Dose: 0, 200, 400, 600 PPM IN DIET FOR 105 WK (STUDY DURATION: 105 WK), Dose: 0, 200, 400, 600 PPM IN DIET FOR 105 WK (STUDY DURATION: 105 WK)); “active; positive” (Species: RAT, Strain/Sex: F344/N/MALE, Route: ORAL, Dose: 0, 1000 PPM IN DIET FOR 52 WK (STUDY DURATION: 105 WK), Tumor Site: Type of Lesion: SKIN: KERATOACANTHOMA).
`CCCCCCCCCCCCN=C(N)N`: the carcinogen call is “active; positive, (neither tumor type, alone, was statistically significant.)” (Species: Mouse, Strain/Sex: Crl:CD-1(ICR)BR/Female (70/Group), Route: Oral, Dose: 0, 200, 750, 1500 ppm in diet for 78 wk, study duration 78 wk. Test sample purity, 98%., Dose: 0, 200, 750, 1500 ppm in diet for 78 wk, study duration 78 wk. Test sample purity, 98%., Tumor Site: Type of Lesion: Liver: Hepatocellular adenoma and carcinoma combined (high dose only)); “inactive; negative” (Species: Mouse, Strain/Sex: Crl:CD-1(ICR)BR/Male (70/Group), Route: Oral, Dose: 0, 200, 750, 1500 ppm in diet for 78 wk, study duration 78 wk. Test sample purity, 98%., Dose: 0, 200, 750, 1500 ppm in diet for 78 wk, study duration 78 wk. Test sample purity, 98%.); “inactive; negative” (Species: Rat, Strain/Sex: Sprague-Dawley/Female (60/Group), Route: Oral, Dose: 0, 13.2, 26.5, 53.5 mg/kg/day in diet on wks 1-101, study duration 2 yrs. Test sample purity, 98.6%., Dose: 0, 13.2, 26.5, 53.5 mg/kg/day in diet on wks 1-101, study duration 2 yrs. Test sample purity, 98.6%.); “inactive; negative” (Species: Rat, Strain/Sex: Sprague-Dawley/Male (60/Group), Route: Oral, Dose: 0, 10.2, 20.3, 41.9 mg/kg/day in diet on wks 1-101, study duration 2 yrs. Test sample purity, 98.6%, Dose: 0, 10.2, 20.3, 41.9 mg/kg/day in diet on wks 1-101, study duration 2 yrs. Test sample purity, 98.6%).
`Cc1cc(O)c(C(C)(C)C)cc1Sc1cc(C(C)(C)C)c(O)cc1C`: the carcinogen call is “inactive; negative” (Species: MOUSE, Strain/Sex: B6C3F1/FEMALE, Route: ORAL, Dose: 0, 250, 500, 1000 PPM IN DIET FOR 2 YR (STUDY DURATION: 104 WK), Dose: 0, 250, 500, 1000 PPM IN DIET FOR 2 YR (STUDY DURATION: 104 WK)); “inactive; negative” (Species: MOUSE, Strain/Sex: B6C3F1/MALE, Route: ORAL, Dose: 0, 250, 500, 1000 PPM IN DIET FOR 2 YR (STUDY DURATION: 104 WK), Dose: 0, 250, 500, 1000 PPM IN DIET FOR 2 YR (STUDY DURATION: 104 WK)); “inactive; negative” (Species: RAT, Strain/Sex: F344/FEMALE, Route: ORAL, Dose: 0, 500, 1000, 2500 PPM IN DIET FOR 2 YR (STUDY DURATION: 104 WK), Dose: 0, 500, 1000, 2500 PPM IN DIET FOR 2 YR (STUDY DURATION: 104 WK)); “inactive; negative” (Species: RAT, Strain/Sex: F344/MALE, Route: ORAL, Dose: 0, 500, 1000, 2500 PPM IN DIET FOR 2 YR (STUDY DURATION: 104 WK), Dose: 0, 500, 1000, 2500 PPM IN DIET FOR 2 YR (STUDY DURATION: 104 WK)).
With `O=C(C1CCCCC1)N1CC(=O)N2CCc3ccccc3C2C1` (stereo not drawn), where the note is “Species: HAMSTER, Strain/Sex: SYRIAN/MALE, Route: GAVAGE, Dose: 0, 300 MG/KG IN CORN OIL 1/5 WK FOR A TOTAL OF 5 DOSES (STUDY DURATION: 40 WK)”, the carcinogen call is “inactive; negative”.
Turning to `CC(C)CBr`, the carcinogen call (Species: MOUSE, Route: INTRAPERITONEAL, Tumor Site: Type of Lesion: LUNG) was “active; positive”.
On to `CC(C)(c1ccc(O)cc1)c1ccc(O)cc1` (tested in a mixture with another compound), for which the carcinogen call (Species: MOUSE, Strain/Sex: CF-1/FEMALE, Route: DERMAL, Dose: 0, 1, 10% EPIKOTE 828 IN ACETONE (TOTAL DOSE 0.2 ML) 2/WK APPLIED TO DORSAL SKIN FOR DURATION OF STUDY (STUDY DURATION:, Dose: 0, 1, 10% EPIKOTE 828 IN ACETONE (TOTAL DOSE 0.2 ML) 2/WK APPLIED TO DORSAL SKIN FOR DURATION OF STUDY (STUDY DURATION:, Tumor Site: Type of Lesion: HEMATOPOIETIC SYSTEM: RETICULUM-CELL SARCOMA, LYMPHOBLASTIC LYMPHOSARCOMA) was “active; positive”; the carcinogen call (Species: MOUSE, Strain/Sex: CF-1/FEMALE, Route: DERMAL, Dose: 0, 1, 10% EPON 828 IN ACETONE (TOTAL DOSE 0.2 ML) 2/WK APPLIED TO DORSAL SKIN FOR DURATION OF STUDY (STUDY DURATION: 2 Y, Dose: 0, 1, 10% EPON 828 IN ACETONE (TOTAL DOSE 0.2 ML) 2/WK APPLIED TO DORSAL SKIN FOR DURATION OF STUDY (STUDY DURATION: 2 Y) is “inactive; negative”; the carcinogen call (Species: MOUSE, Strain/Sex: CF-1/MALE, Route: DERMAL, Dose: 0, 1, 10% EPIKOTE 828 IN ACETONE (TOTAL DOSE 0.2 ML) 2/WK APPLIED TO DORSAL SKIN FOR DURATION OF STUDY (STUDY DURATION:, Dose: 0, 1, 10% EPIKOTE 828 IN ACETONE (TOTAL DOSE 0.2 ML) 2/WK APPLIED TO DORSAL SKIN FOR DURATION OF STUDY (STUDY DURATION:) is “inactive; negative”; the carcinogen call (Species: MOUSE, Strain/Sex: CF-1/MALE, Route: DERMAL, Dose: 0, 1, 10% EPON 828 IN ACETONE (TOTAL DOSE 0.2 ML) 2/WK APPLIED TO DORSAL SKIN FOR DURATION OF STUDY (STUDY DURATION: 2 Y, Dose: 0, 1, 10% EPON 828 IN ACETONE (TOTAL DOSE 0.2 ML) 2/WK APPLIED TO DORSAL SKIN FOR DURATION OF STUDY (STUDY DURATION: 2 Y) was “inactive; negative”.
